What was measured:
[1] = Solid state stability of crystalline Form IX under high temperature, high humidity and strong light; format: physicochemical
Description: About 10 mg of crystalline Form IX of Compound 1 was weighed and placed on a bottom of a glass sample bottle to form a thin layer. For the samples placed under the conditions of 60° C. and room temperature/92.5% RH, the top of the bottles was covered with aluminum foil, and several holes were made in aluminum foil, which is ensure that the samples were fully exposed to the air in the environment; for the samples placed under strong light (5 Klx), the bottles were sealed with a screw cap. Another sample of 15 mg of crystalline Form IX was taken and placed according to the method as described above for detecting the crystalline form of the sample. The samples placed under different conditions were sampled and detected on day 5 and day 10, and the detection results were compared with the initial detection results on day 0.

[2] = Stability of crystalline Form IX of Compound 1 in different solvents (XRPD after stirring); format: physicochemical; conditions: stirred at 40° C.; for Results (crystalline state by XRPD): 2 days
Description: Several samples of crystalline Form IX of Compound 1 in a suitable amount were taken, respectively added to 0.3-0.4 mL of a single solvent or a mixed solvent as shown in the following table, and stirred at 40° C. After stirring for 2 days, the samples were centrifuged. Solid in the samples was collected and its crystalline state was detected by XRPD.

[3] = High temperature 60° C. (opened), day 5
[4] = High temperature 60° C. (opened), day 5 and day 10
[5] = High temperature 60° C. (opened), day 10
[6] = Light 5KIx (closed), day 5 and day 10
[7] = Room temperature/92.5% RH (opened), day 5
[8] = Room temperature/92.5% RH (opened), day 5 and day 10
[9] = Room temperature/92.5% RH (opened), day 10

Content (%) [1, 3]: 100.64% | Total impurities (%) [1, 3]: 0.32% | Appearance [1, 4]: White | Crystalline Form [1, 4]: crystalline | Content (%) [1, 5]: 100.55% | Total impurities (%) [1, 5]: 0.33% | Content (%) ([1]; Light 5KIx (closed), day 5): 100.43% | Total impurities (%) ([1]; Light 5KIx (closed), day 5): 0.31% | Appearance [1, 6]: White | Crystalline Form [1, 6]: crystalline | Content (%) ([1]; Light 5KIx (closed), day 10): 101.10% | Total impurities (%) ([1]; Light 5KIx (closed), day 10): 0.32% | Content (%) [1, 7]: 101.05% | Total impurities (%) [1, 7]: 0.32% | Appearance [1, 8]: White | Crystalline Form [1, 8]: crystalline | Content (%) [1, 9]: 101.16% | Total impurities (%) [1, 9]: 0.32% | Appearance ([1]; day 0 (initial)): White | Content (%) ([1]; day 0 (initial)): 101.02% | Crystalline Form ([1]; day 0 (initial)): crystalline | Total impurities (%) ([1]; day 0 (initial)): 0.32% | Appearance (2 days) ([2]; acetone): suspension | Results (crystalline state by XRPD) ([2]; acetone): crystalline | Appearance (2 days) ([2]; acetone-water (1:2)): suspension | Results (crystalline state by XRPD) ([2]; acetone-water (1:2)): crystalline | Appearance (2 days) ([2]; acetonitrile): suspension | Results (crystalline state by XRPD) ([2]; acetonitrile): crystalline | Appearance (2 days) ([2]; ethanol): suspension | Results (crystalline state by XRPD) ([2]; ethanol): crystalline | Appearance (2 days) ([2]; ethanol-water (3:1)): suspension | Results (crystalline state by XRPD) ([2]; ethanol-water (3:1)): crystalline | Appearance (2 days) ([2]; ethyl acetate): suspension | Results (crystalline state by XRPD) ([2]; ethyl acetate): crystalline | Appearance (2 days) ([2]; isopropanol): suspension | Results (crystalline state by XRPD) ([2]; isopropanol): crystalline | Appearance (2 days) ([2]; isopropanol-water (1:1)): suspension | Results (crystalline state by XRPD) ([2]; isopropanol-water (1:1)): crystalline | Appearance (2 days) ([2]; methanol): suspension | Results (crystalline state by XRPD) ([2]; methanol): crystalline | Appearance (2 days) ([2]; methanol-water (3:1)): suspension | Results (crystalline state by XRPD) ([2]; methanol-water (3:1)): crystalline | Appearance (2 days) ([2]; tetrahydrofuran): suspension | Results (crystalline state by XRPD) ([2]; tetrahydrofuran): crystalline
Structure (SMILES): COc1ncc(-c2ccc3ncc(OCCN(C)C)c(=O)n3c2)cc1NS(=O)(=O)c1ccc(F)cc1Cl [crystalline Form IX of Compound 1]
